Key:
[1] = test system: Bursaphelenchus xylophilus; experiment: Occurrence of pine wilt disease after trunk injection of induced resistance candidate materials, in vivo test in young red pine trees; conditions: red pine tree (Pinus densiflora), 30 days after inoculation; for Occurrence rate of pine wilt disease: Number of pine trees showing wilt symptoms / Number of pine trees used for the test: trunk injection 100 µℓ per tree; for Number of pine trees showing wilt symptoms only at growing points of a stem: trunk injection
Experimental: By using the 15 types of an induced resistance elicitors which have been known to induce the plant resistance against various diseases as candidates, their controlling effect against pine wilt disease was examined. The control efficacy of candidates against pine wilt disease was analyzed according to an in vivo test using red pine tree (Pinus densiflora) which was 2-year old young pine trees (diameter of 5.5 mm or so, and height of about 35 mm).
As a candidate group of an induced resistance material, two kinds of acibenzolar-S-methyl (ASM), TDL (Tiadinil), ITL (Isotianil), PBZ (Probenzole), AZO (Azoxystrobin), VMA (Validamycin A), MeJA (Methyl jasmonate), BABA (DL-3-aminobutyric acid), 2,3-BDO (2,3-Butanediol), SA (salicyclic acid), GABA (r-Aminobutyric acid), glucan (Glucan), ER (Ergosterol), and AZA (Azelaic acid) were used. Only the use of acibenzolar-S-methyl is according to the invention. Injection of the chemicals was carried out by trunk injection method, i.e., at an angle of 45°, a borehole was created by using an electric drill with thickness of 1.5 mm on a pine stem part that is 5 to 10 cm above the soil surface, a tip (200 µℓ) was inserted to the hole, and, after dissolving the candidate material at concentration level of 200, 20, or 2 µg/mℓ in each solvent, the solution was injected in an amount of 100 µℓ per pine tree. After the injection of the chemical agent, the end part of the tip was sealed with parafilm.
The pine tree wilt nematodes (Bursaphelenchus xylophilus, National Institute of Forest Science (NIFoS), South Korea) was incubated at 25°C by feeding them with Botrytis cinerea, which have been cultured on a potato dextrose agar (PDA) medium, and after one week incubation, they were collected by Baermann funnel method and were adjusted to the level of 20,000 worms/mℓ by examining the number of the worms under an optical microscope. One week after the chemical treatment, the inoculation of the pine tree wilt nematodes was carried out by tree barking inoculation of 100 µℓ, i.e., 2,000 worms, per tree, and the result was determined 30 days after the inoculation. […] [Table 1] Occurrence rate of pine wilt disease in candidate group of induced resistance materials

[2] = test system: Cytochrome_P450; experiment: qRT-PCR expression of induced resistance gene in pine tree callus; format: cell-based; conditions: for Expression of induced resistance gene, Cytochrome_P450: 24 hours
Experimental: For in vitro analysis of induced resistance, the expression of PR genes and other plant defense-related genes was determined, which are evolved in various defense mechanisms including induced resistance. The primers of sixteen induced resistance-related genes of pine tree used in this invention were listed in the below and elongation factor_1 alpha were used as a reference gene. […] The primer list of defense resistance-related genes
After the treatment with 200 µg / mℓ of candidates of the selected induced resistance material, expression of the induced resistance-related gene in pine callus was determined by qRT-PCR using the primer pairs of defense resistance-related genes in Table 4. As a candidate group of an induced resistance material in pine tree, acibenzolar-S-methyl (ASM), TDL (Tiadinil), ITL (Isotianil), PBZ (Probenzole), AZO (Azoxystrobin), VMA (Validamycin A), MeJA (Methyl jasmonate), BABA (DL-3-aminobutyric acid), 2,3-BDO (2,3-Butanediol), GABA (r-Aminobutyric acid), glucan (Glucan), ER (Ergosterol), and AZA (Azelaic acid) were used. For the in vitro analysis of the expression of induced resistance gene in pine callus, the selected induced resistance materials were applied with 500 µℓ of LM liquid medium on a surface of pine tree callus (100 mg) in 12-well microplate to give final concentration of 200 µg/mℓ. Then, the callus surface was sufficiently reacted for 24 hours with the candidate of pine tree induced resistance material by shaking at 50 rpm in a 25 °C shaking incubator under dark condition. RNAs were extracted from the callus after completion of the reaction with an induced resistance material, followed by synthesis of cDNAs. Then, by carrying out qRT-PCR, the expression of induced resistance genes was determined.
Thus, the following tests were carried out using acibenzolar-S-methyl only. Expression of the induced resistance genes at different culture time after the chemical treatment was examined. For the in vitro assay, LM medium containing pine tree callus was treated with acibenzolar-S-methyl at concentration of 200 µg / mℓ, followed by reaction for 1 day, 7 days, or 14 days in a 25°C shaking incubator under dark condition. RNAs were extracted from the callus after the reaction followed by synthesis of cDNAs. Then, by carrying out qRT-PCR, the expression of the induced resistance genes was determined. Depending on reaction time after the treatment, i.e., after 1 day, 7 days, or 14 days, the expression of the obtained induced resistance genes was examined. […]
For the surface treatment (spraying treatment) of pine tree callus, 100 mg of the pine tree callus were dunked in 500 µℓ LM liquid medium and 500 µℓ of 400 µg/mℓ acibenzolar-S-methyl were sprayed (i.e., sprayed 5 times, 100 µℓ for each spraying, 200 µg/mℓ) on the callus surface. Then, the pine callus sprayed with acibenzolar-S-methyl was reacted for 24 hours by shaking at 50 rpm in a 25°C shaking incubator under dark condition. After the completion of the 24-hour reaction, RNAs were extracted from the callus followed by synthesis of cDNAs. Then, by carrying out qRT-PCR, expression of the induced resistance gene was determined.

Row | SMILES | Occurrence rate of pine wilt disease: Number of pine trees showing wilt symptoms / Number of pine trees used for the test ([1]; 2 µg/mℓ) | Occurrence rate of pine wilt disease: Number of pine trees showing wilt symptoms / Number of pine trees used for the test ([1]; 20 µg/mℓ) | Occurrence rate of pine wilt disease: Number of pine trees showing wilt symptoms / Number of pine trees used for the test ([1]; 200 µg/mℓ) | Number of pine trees showing wilt symptoms only at growing points of a stem ([1]; 2 µg/mℓ) | Number of pine trees showing wilt symptoms only at growing points of a stem ([1]; 20 µg/mℓ) | Number of pine trees showing wilt symptoms only at growing points of a stem ([1]; 200 µg/mℓ) | Expression of induced resistance gene, Cytochrome_P450 ([2]; 200 µg/mℓ) | Expression of induced resistance gene, Cytochrome_P450 ([2]; 200 µg/mℓ, Direct supplying as a medium component) | Expression of induced resistance gene, Cytochrome_P450 ([2]; 200 µg/mℓ, Spraying) | Gene expression level, Cytochrome_P450 ([2]; 200 µg/mℓ, After 1 day) | Gene expression level, Cytochrome_P450 ([2]; 200 µg/mℓ, After 7 days) | Gene expression level, Cytochrome_P450 ([2]; 200 µg/mℓ, After 14 days) | Gene expression level, Cytochrome_P450 ([2]; concentration series, 2 µg/mℓ) | Gene expression level, Cytochrome_P450 ([2]; concentration series, 20 µg/mℓ) | Gene expression level, Cytochrome_P450 ([2]; concentration series, 200 µg/mℓ)
1 | CC(N)CC(=O)O (racemic) [BABA, DL-3-aminobutyric acid] | 2/3 | 3/3 | 2/3 | 2 | 2 | 2 | 0.37 | – | – | – | – | – | – | – | –
2 | CC(O)C(C)O (stereo not drawn) [2,3-BDO, 2,3-Butanediol] | 2/3 | 3/3 | 1/3 | 2 | 1 | 1 | 0.88 | – | – | – | – | – | – | – | –
3 | CSC(=O)c1cccc2nnsc12 [ASM, acibenzolar-S-methyl] | 1/3 | 1/3 | 0/3 | 1 | 1 | – | 1.71 | 9.99 | 1.71 | 7.21 | 0.85 | 0.04 | 1.231 | 1.173 | 1.231
4 | O=C(O)CCCCCCCC(=O)O [AZA, Azelaic acid] | 2/3 | 2/3 | 2/3 | – | 1 | 2 | 1.05 | – | – | – | – | – | – | – | –
5 | CO/C=C(/C(=O)OC)c1ccccc1Oc1cc(Oc2ccccc2C#N)ncn1 [AZO, Azoxystrobin] | 0/3 | 2/2 | 2/3 | – | 1 | 2 | 1.17 | – | – | – | – | – | – | – | –
6 | CC(C)[C@@H](C)/C=C/[C@@H](C)[C@H]1CC[C@H]2C3=CC=C4C[C@@H](O)CC[C@]4(C)[C@H]3CC[C@]12C [ER, Ergosterol] | 3/3 | 0/3 | 1/3 | 1 | – | – | 1.06 | – | – | – | – | – | – | – | –
7 | NCCCC(=O)O [GABA, r-Aminobutyric acid] | 3/3 | 1/3 | 0/3 | 1 | 1 | – | 2.41 | – | – | – | – | – | – | – | –
